In patent US20200017495A1, “NOVEL HETEROCYCLIC COMPOUNDS AND THEIR USE IN PREVENTING OR TREATING BACTERIAL INFECTIONS” (priority 2017, published 2020):
Like-named read-outs stand apart in the source and are kept apart here.

How the values were obtained:
Experiment in all cases: MIC of compounds alone and combined with antibacterials, broth microdilution (CLSI)
Type in all cases: cell-based
[1] = test system: Escherichia coli (ECO) isolates
Method in brief: (§1)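 First, log-phase suspensions are brought to 5.10^5 CFU/mL final in ca-MHB; plates then incubate 16-20 h at 35° C in air. Growth is judged visually, giving the compound MIC alone and the antibacterial MIC at each compound concentration.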

[2] = test system: Citrobacter freundii (CFR) isolates
Method in brief: as §1

[3] = test system: Serratia marcescens (SMA) isolates
Method in brief: as §1

[4] = test system: Citrobacter koseri (CKR) isolates
Method in brief: as §1

[5] = test system: Enterobacter aerogenes (EAE) isolates
Method in brief: as §1

[6] = test system: Providencia rettgeri (PRE) isolates
Method in brief: as §1

CO/N=C(\C(=O)N[C@@H]1C(=O)N2C(C(=O)O)=C(COC(N)=O)CS[C@H]12)c1ccco1 [FUR, Cefuroxime]
MIC ([1]; strain ECO 4133, genotype TEM-30, OXA-1): 16 µg/mL | MIC ([1]; strain ECO 5302, genotype TEM-1, OXA-1): 32 µg/mL | MIC ([1]; strain ECO 131119, genotype TEM-1, OXA-48): 8 µg/mL | MIC ([1]; strain ECO 180070, genotype TEM-1, CTX-M-15): >256 µg/mL | MIC ([1]; strain ECO 190314, genotype CTX-M-1): >256 µg/mL | MIC ([1]; strain ECO 190317, genotype TEM-1, SHV-12, CTX-M-15, OXA-1): >512 µg/mL | MIC ([1]; strain ECO 190457, genotype CTX-M-15, OXA-1): >256 µg/mL | MIC ([1]; strain ECO 190549, genotype CTX-M-1): >256 µg/mL | MIC ([1]; strain ECO 200159, genotype TEM-1, CTX-M-14): >256 µg/mL | MIC ([1]; strain ECO 200259, genotype CTX-M-14): >256 µg/mL | MIC ([1]; strain ECO 200344, genotype CTX-M-1): >256 µg/mL | MIC ([1]; strain ECO 260096, genotype CTX-M-132): >256 µg/mL | MIC ([1]; strain ECO 260304, genotype CTX-M-15): >256 µg/mL | MIC ([1]; strain ECO 260508, genotype TEM-1, CTX-M-15, OXA-1): >256 µg/mL | MIC ([1]; strain ECO RGN238, genotype OXA-1): 16 µg/mL | MIC ([1]; strain ECO UFR15, genotype TEM-1, OXA-48): 16 µg/mL | MIC ([1]; strain ECO UFR16, genotype TEM-1, CTX-M-15, OXA-1, OXA-48): >256 µg/mL | MIC ([1]; strain ECO UFR17, genotype TEM-1, CTX-M-15, CMY-2, OXA-1, OXA-181): >256 µg/mL | MIC ([1]; strain ECO UFR18, genotype CTX-M-15, OXA-204): >256 µg/mL | MIC ([1]; strain ECO UFR19, genotype CTX-M-15, CMY-2, OXA-1, OXA-204): >256 µg/mL | MIC ([1]; strain ECO UFR20, genotype SHV-1, CTX-M-15, OXA-1, OXA-232): >256 µg/mL | MIC ([1]; strain ECO UFR39, genotype CTX-M-15, NDM-1): >256 µg/mL | MIC ([1]; strain ECO UFR61O, genotype TEM-1, KPC-2): >256 µg/mL | MIC ([1]; strain ECO UFR62, genotype TEM-1, CTX-M-9, KPC-2): >256 µg/mL | MIC ([1]; strain ECO UFR74, genotype SHV-1, DHA-1): >256 µg/mL | MIC ([1]; strain ECO UFR86, genotype ompC-, ompF-): 64 µg/mL | MIC ([1]; strain ECO UFR174, genotype TEM-1, KPC-2, OXA-1): >256 µg/mL | MIC ([1]; strain ECO UFR175, genotype TEM-1, KPC-2, OXA-9): >256 µg/mL | MIC ([1]; strain ECO UFR176, genotype KPC-3, OXA-9*): >256 µg/mL | MIC ([1]; strain ECO UFR184, genotype CTX-M-15, CMY-4, OXA-1, OXA-204): >256 µg/mL | MIC ([1]; strain ECO UFR185, genotype OXA-48): >256 µg/mL | MIC ([1]; strain ECO UFR186, genotype TEM-1, CTX-M-14, OXA-48): >256 µg/mL | MIC ([1]; strain ECO UFR187, genotype CTX-M-15, OXA-48): >256 µg/mL | MIC ([1]; strain ECO UFR189, genotype TEM-1, CTX-M-15, OXA-48): >256 µg/mL | MIC ([1]; strain ECO UFR190, genotype CTX-M-24, OXA-48): >256 µg/mL | MIC ([1]; strain ECO UFR191, genotype TEM-1, CTX-M-24, OXA-48): >256 µg/mL | MIC ([1]; strain ECO UFR207, genotype CTX-M-15): >256 µg/mL | MIC ([1]; strain ECO UFR208, genotype SHV-12): >256 µg/mL | MIC ([1]; strain ECO UFR209, genotype TEM-1, CTX-M-15): >256 µg/mL | MIC ([1]; strain ECO UFR210, genotype SHV-12): >256 µg/mL | MIC ([1]; strain ECO UFR211, genotype TEM-24): 64 µg/mL | MIC ([1]; strain ECO UFR212, genotype CMY-2): >256 µg/mL | MIC ([1]; strain ECO UFR218, genotype TEM-1, SHV-1, CTX-M-15): >256 µg/mL | MIC ([2]; strain CFR UFR10, genotype OXA-48): >256 µg/mL | MIC ([2]; strain CFR UFR11, genotype TEM-1, OXA-1, OXA-48): >256 µg/mL | MIC ([2]; strain CFR UFR83, genotype TEM-3, AmpC): >256 µg/mL | MIC ([2]; strain CFR UFR146, genotype TEM-1, KPC-2): >256 µg/mL | MIC ([2]; strain CFR UFR248, genotype CTX-M-15): >256 µg/mL | MIC ([2]; strain CFR UFR249, genotype TEM-1, CTX-M-15): >256 µg/mL | MIC ([2]; strain CFR UFR250, genotype TEM-1, SHV-28, CTX-M-15): >256 µg/mL | MIC ([2]; strain CFR UFR253, genotype TEM-1, SHV-12, OXA-48): 32 µg/mL | MIC ([2]; strain CFR UFR254, genotype VEB-1b, OXA-48, qnrA): 32 µg/mL | MIC ([3]; strain SMA UFR30, genotype OXA-405): >256 µg/mL | MIC ([3]; strain SMA UFR134, genotype TEM-1, BES-1): >256 µg/mL | MIC ([3]; strain SMA UFR135, genotype TEM-1, KPC-2): >256 µg/mL | MIC ([3]; strain SMA UFR136, genotype TEM-1, SHV-12, KPC-2): >256 µg/mL | MIC ([3]; strain SMA UFR137, genotype SME-1): 256 µg/mL | MIC ([3]; strain SMA UFR138, genotype SME-1): 256 µg/mL | MIC ([3]; strain SMA UFR139, genotype SME-2): >256 µg/mL | MIC ([3]; strain SMA UFR141, genotype OXA-48): >256 µg/mL | MIC ([3]; strain SMA UFR142, genotype OXA-48): >256 µg/mL | MIC ([3]; strain SMA UFR143, genotype CTX-M-15, OXA-1, OXA-48): >256 µg/mL | MIC ([3]; strain SMA UFR238, genotype OXA-48): >256 µg/mL | MIC ([3]; strain SMA UFR239, genotype ESAC): 256 µg/mL | MIC ([4]; strain CKO ROU, genotype TEM-1, SHV-12, CTX-M-15, OXA-1, OXA-48): 64 µg/mL | MIC ([4]; strain CKO UFR149, genotype OXA-48): >256 µg/mL | MIC ([4]; strain CKO UFR150, genotype TEM-1, OXA-48): 64 µg/mL | MIC ([5]; strain EAE 49469, genotype AmpC): >128 µg/mL | MIC ([5]; strain EAE 200261, genotype TEM-x, AmpC): >256 µg/mL | MIC ([5]; strain EAE UFR199, genotype TEM-1b, SHV-12, KPC-2, OXA-9): >256 µg/mL | MIC ([5]; strain EAE UFR201, genotype TEM-1, SHV-12, CTX-M-15): >256 µg/mL | MIC ([5]; strain EAE UFR202, genotype TEM-24): >256 µg/mL | MIC ([5]; strain EAE UFR213, genotype TEM-24): >256 µg/mL | MIC ([6]; strain PRE UFR99, genotype OXA-1, OXA-181): >256 µg/mL | MIC ([6]; strain PRE UFR236, genotype TEM-1, OXA-48): 64 µg/mL

COCC1=C(C(=O)O)N2C(=O)[C@@H](NC(=O)/C(=N\OC)c3csc(N)n3)[C@H]2SC1 [POD, Cefpodoxime]
MIC ([1]; Escherichia coli, strain ECO 4133, genotype TEM-30, OXA-1, read-out: MIC): 2 µg/mL | MIC ([1]; Escherichia coli, strain ECO 5302, genotype TEM-1, OXA-1, read-out: MIC): 4 µg/mL | MIC ([1]; Escherichia coli, strain ECO 131119, genotype TEM-1, OXA-48, read-out: MIC): 1 µg/mL | MIC ([1]; Escherichia coli, strain ECO 190317, genotype TEM-1, SHV-12, CTX-M-15, OXA-1, read-out: MIC): > 512 µg/mL | MIC ([1]; Escherichia coli, strain ECO RGN238, genotype OXA-1, read-out: MIC): 2 µg/mL | MIC ([1]; Escherichia coli, strain ECO UFR15, genotype TEM-1, OXA-48, read-out: MIC): 2 µg/mL | MIC ([1]; Escherichia coli, strain ECO UFR86, genotype ompC-, ompF-, read-out: MIC): 4 µg/mL | MIC ([1]; Escherichia coli, strain ECO UFR211, genotype TEM-24, read-out: MIC): 32 µg/mL | MIC ([2]; Citrobacter freundii, strain CFR UFR253, genotype TEM-1, SHV-12, OXA-48, read-out: MIC): 32 µg/mL | MIC ([2]; Citrobacter freundii, strain CFR UFR254, genotype VEB-1b, OXA-48, qnrA, read-out: MIC): 32 µg/mL | MIC ([3]; Serratia marcescens, strain SMA UFR30, genotype OXA-405, read-out: MIC): 32 µg/mL | MIC ([3]; Serratia marcescens, strain SMA UFR137, genotype SME-1, read-out: MIC): 1 µg/mL | MIC ([3]; Serratia marcescens, strain SMA UFR138, genotype SME-1, read-out: MIC): 2 µg/mL | MIC ([3]; Serratia marcescens, strain SMA UFR139, genotype SME-2, read-out: MIC): 8 µg/mL | MIC ([3]; Serratia marcescens, strain SMA UFR141, genotype OXA-48, read-out: MIC): 8 µg/mL | MIC ([3]; Serratia marcescens, strain SMA UFR142, genotype OXA-48, read-out: MIC): 8 µg/mL | MIC ([3]; Serratia marcescens, strain SMA UFR238, genotype OXA-48, read-out: MIC): 8 µg/mL | MIC ([3]; Serratia marcescens, strain SMA UFR239, genotype ESAC, read-out: MIC): 16 µg/mL | MIC ([4]; Citrobacter koseri, strain CKO ROU, genotype TEM-1, SHV-12, CTX-M-15, OXA-1, OXA-48, read-out: MIC): 4 µg/mL | MIC ([4]; Citrobacter koseri, strain CKO UFR150, genotype TEM-1, OXA-48, read-out: MIC): 16 µg/mL | MIC ([5]; Klebsiella aerogenes, strain EAE 49469, genotype AmpC, read-out: MIC): > 128 µg/mL | MIC ([6]; Providencia rettgeri, strain PRE UFR236, genotype TEM-1, OXA-48, read-out: MIC): 64 µg/mL
